Results on 24 compounds are retold here after ChEMBL document CHEMBL5543167, “Design, Synthesis, and Biological Evaluation of Novel EGFR PROTACs Targeting C797S Mutation” (J Med Chem, 2024).

Assay [1] in a line: Antiproliferative activity against human HI975-TM cells harboring EGFR L858R/T790M/C797S mutant assessed as inhibition of cell growth incubated for 72 hrs by CCK-8 assay. The note with it: H1975-TM. The class given is functional, cell-based. For orientation: Tetrazolium dyes change colour on reduction, which living cells bring about.
In assay [2] the test system is Protein cereblon/Epidermal growth factor receptor (Homo sapiens), P00533+Q96SW2 [L858R,T790M,C797S]. The assay can be described thus: PROTAC activity at CRBN/EGFR L858R/T790M/C797S mutant in human H1975-TM cells assessed as induction of EGFR degradation by measuring maximal efficacy at 300 nM incubated for 24 hrs by Western blot analysis relative to control. The class given is cell-based. (In general: A western blot detects proteins with antibodies after separation by electrophoresis.)

Assay [3] addresses Protein cereblon/Epidermal growth factor receptor (Homo sapiens, UniProt P00533+Q96SW2, T790M/L858R). The assay can be described thus: PROTAC activity at CRBN/EGFR L858R/T790M double mutant in human NCI-H1975 cells assessed as induction of EGFR degradation. It counts as cell-based.
For assay [4], the target named is Protein cereblon/Epidermal growth factor receptor (Homo sapiens, UniProt P00533+Q96SW2, T790M/C797S/L858R). The assay can be described thus: PROTAC activity at CRBN/EGFR L858R/T790M/C797S mutant in human H1975-TM cells assessed as induction of EGFR degradation incubated for 24 hrs by Western blot analysis. It counts as cell-based.
Assay [5] in a line: Antiproliferative activity against human PC-9-TM cells harboring EGFR exon 19 deletion/T790M/[…] mutant assessed as inhibition of cell proliferation incubated for 72 hrs by CCK8 assay. It counts as functional, cell-based.
A further assay has as its system A549. Kind of assay: Antiproliferative activity against human A549 cells harboring wildtype EGFR assessed as inhibition of cell proliferation incubated for 72 hrs by CCK8 assay. It counts as functional, cell-based. The note with it: A549, 72 h.
The subject of a further assay is PC-9. Kind of assay: Antiproliferative activity against human PC-9 cells harboring EGFR exon 19 deletion mutant assessed as inhibition of cell proliferation incubated for 72 hrs by CCK8 assay. It counts as functional, cell-based. The note with it: PC-9, 72 h.
A further assay has as its system NCI-H1975. Kind of assay: Antiproliferative activity against human NCI-H1975 cells harboring EGFR L858R/T790M mutant assessed as inhibition of cell proliferation incubated for 72 hrs by CCK8 assay. It counts as functional, cell-based. The conditions noted are these: NCI-H1975, 72 h.
In assay [6] the target is von Hippel-Lindau disease tumor suppressor/Epidermal growth factor receptor (Homo sapiens, UniProt P00533+P40337, L858R). The assay can be described thus: PROTAC activity at VHL/EGFR L858R mutant in human NCI-H3255 cells assessed as induction of EGFR degradation incubated for 24 hrs by immunoblotting analysis. The class given is cell-based.
Assay [7] deals with Protein cereblon/Epidermal growth factor receptor (Homo sapiens), P00533+Q96SW2 [L858R,T790M,C797S]. Kind of assay: Induction of EGFR L858R/T790M/C797S mutant in human H1975-TM cells assessed as remaining activity at 1 uM incubated for 6 hrs by Western blot analysis (reference value: 100%). The class given is cell-based.
Assay [8] has the same test system. The assay can be described thus: PROTAC activity at CRBN/EGFR L858R/T790M/C797S mutant in human H1975-TM cells assessed as induction of EGFR degradation by measuring remaining activity at 100 nM incubated for 24 hrs by Western blot analysis (reference value: 100%). It counts as cell-based.
Assay [9] addresses Epidermal growth factor receptor (Homo sapiens, UniProt P00533, C797S/L858R/T790M). Kind of assay: Binding affinity to EGFR L858R/T790M/C797S mutant (unknown origin) assessed as dissociation constant incubated for 10 mins under dark condition by MST analysis.

Sequence of Protein cereblon/Epidermal growth factor receptor (Homo sapiens, UniProt P00533+Q96SW2, T790M/C797S/L858R) (P00533 25-1210 T790M/C797S/L858R limits assumed, stated change not applied): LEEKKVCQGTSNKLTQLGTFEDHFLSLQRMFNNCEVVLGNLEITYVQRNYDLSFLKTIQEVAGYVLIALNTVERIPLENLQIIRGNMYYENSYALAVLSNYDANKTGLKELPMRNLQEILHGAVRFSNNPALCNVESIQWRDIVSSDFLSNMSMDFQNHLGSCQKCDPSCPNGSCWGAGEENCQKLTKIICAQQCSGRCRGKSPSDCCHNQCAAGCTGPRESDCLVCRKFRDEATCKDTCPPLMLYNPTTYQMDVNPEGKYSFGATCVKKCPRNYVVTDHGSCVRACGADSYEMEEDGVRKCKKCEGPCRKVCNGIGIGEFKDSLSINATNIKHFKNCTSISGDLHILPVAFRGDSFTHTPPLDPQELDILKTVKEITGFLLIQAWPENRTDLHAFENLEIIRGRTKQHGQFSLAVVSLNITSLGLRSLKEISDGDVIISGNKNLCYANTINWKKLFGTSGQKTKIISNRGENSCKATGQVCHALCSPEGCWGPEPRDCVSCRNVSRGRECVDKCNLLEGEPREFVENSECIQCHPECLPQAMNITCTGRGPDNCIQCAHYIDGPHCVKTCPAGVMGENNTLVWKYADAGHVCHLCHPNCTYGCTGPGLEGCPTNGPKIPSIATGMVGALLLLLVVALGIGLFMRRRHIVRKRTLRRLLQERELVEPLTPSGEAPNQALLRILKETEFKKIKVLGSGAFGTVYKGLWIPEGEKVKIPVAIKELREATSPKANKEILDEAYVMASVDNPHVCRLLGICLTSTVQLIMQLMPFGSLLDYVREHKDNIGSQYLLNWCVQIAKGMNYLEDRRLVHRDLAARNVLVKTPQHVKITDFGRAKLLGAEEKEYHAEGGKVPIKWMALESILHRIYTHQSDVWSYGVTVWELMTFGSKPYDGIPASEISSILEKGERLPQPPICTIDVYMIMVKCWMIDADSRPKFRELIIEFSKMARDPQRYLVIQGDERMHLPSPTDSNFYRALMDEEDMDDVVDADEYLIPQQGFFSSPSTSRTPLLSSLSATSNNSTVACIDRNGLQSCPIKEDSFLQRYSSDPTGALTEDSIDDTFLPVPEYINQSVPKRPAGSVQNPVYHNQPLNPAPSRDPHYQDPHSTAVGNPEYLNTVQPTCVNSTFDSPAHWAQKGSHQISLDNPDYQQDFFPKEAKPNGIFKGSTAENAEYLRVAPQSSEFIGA
Sequence of Protein cereblon/Epidermal growth factor receptor (Homo sapiens, UniProt P00533+Q96SW2, T790M/C797S/L858R) (Q96SW2 whole entry, stated change not applied): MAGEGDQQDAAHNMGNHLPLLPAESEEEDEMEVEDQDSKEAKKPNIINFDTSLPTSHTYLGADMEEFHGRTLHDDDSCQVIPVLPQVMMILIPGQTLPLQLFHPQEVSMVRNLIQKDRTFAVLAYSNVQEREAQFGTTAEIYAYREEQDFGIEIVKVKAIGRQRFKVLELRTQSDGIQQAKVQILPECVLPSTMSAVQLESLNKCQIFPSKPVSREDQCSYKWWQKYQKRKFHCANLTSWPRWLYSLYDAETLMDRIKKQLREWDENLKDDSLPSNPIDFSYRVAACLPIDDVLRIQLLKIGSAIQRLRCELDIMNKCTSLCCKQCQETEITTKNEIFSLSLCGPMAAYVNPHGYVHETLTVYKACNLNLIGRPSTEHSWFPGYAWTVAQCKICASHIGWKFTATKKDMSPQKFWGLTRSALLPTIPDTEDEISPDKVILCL
Sequence of Epidermal growth factor receptor (P00533 25-1210 T790M/C797S/L858R limits assumed): as the sequence (P00533 25-1210 T790M/C797S/L858R limits assumed, stated change not applied) above
Sequence of Protein cereblon/Epidermal growth factor receptor (Homo sapiens, UniProt P00533+Q96SW2, T790M/L858R) (P00533 25-1210 T790M/L858R limits assumed, stated change not applied): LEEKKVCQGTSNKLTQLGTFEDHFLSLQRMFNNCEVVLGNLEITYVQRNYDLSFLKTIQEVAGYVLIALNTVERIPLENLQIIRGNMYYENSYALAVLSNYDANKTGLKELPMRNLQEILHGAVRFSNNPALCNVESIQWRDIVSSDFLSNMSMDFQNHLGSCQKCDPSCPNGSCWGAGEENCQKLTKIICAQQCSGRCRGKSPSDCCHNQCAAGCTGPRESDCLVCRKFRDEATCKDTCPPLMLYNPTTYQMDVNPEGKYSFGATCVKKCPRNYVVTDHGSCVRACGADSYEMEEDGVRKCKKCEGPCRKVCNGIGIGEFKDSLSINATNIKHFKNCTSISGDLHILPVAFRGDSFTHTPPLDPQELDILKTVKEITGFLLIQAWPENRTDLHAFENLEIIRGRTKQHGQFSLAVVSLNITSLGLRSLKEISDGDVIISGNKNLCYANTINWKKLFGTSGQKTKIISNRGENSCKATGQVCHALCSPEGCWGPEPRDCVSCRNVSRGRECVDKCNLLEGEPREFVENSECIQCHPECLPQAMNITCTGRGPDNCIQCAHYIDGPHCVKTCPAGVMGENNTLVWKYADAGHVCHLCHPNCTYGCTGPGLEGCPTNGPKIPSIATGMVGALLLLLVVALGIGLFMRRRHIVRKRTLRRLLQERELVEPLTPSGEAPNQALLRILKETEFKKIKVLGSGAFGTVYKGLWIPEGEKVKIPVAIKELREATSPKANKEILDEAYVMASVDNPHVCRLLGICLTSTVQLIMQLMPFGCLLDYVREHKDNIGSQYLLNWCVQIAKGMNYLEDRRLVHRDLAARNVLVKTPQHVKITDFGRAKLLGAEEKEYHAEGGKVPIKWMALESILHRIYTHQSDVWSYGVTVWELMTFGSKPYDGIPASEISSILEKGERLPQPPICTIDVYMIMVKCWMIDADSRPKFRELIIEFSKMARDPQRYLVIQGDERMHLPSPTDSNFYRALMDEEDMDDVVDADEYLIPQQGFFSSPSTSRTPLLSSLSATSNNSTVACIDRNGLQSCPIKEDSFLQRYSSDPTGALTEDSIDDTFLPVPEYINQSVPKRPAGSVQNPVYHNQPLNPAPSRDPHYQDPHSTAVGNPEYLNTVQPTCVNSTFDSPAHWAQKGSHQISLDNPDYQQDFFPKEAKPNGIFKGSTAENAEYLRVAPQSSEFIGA
Sequence of Protein cereblon/Epidermal growth factor receptor (Homo sapiens, UniProt P00533+Q96SW2, T790M/L858R) (Q96SW2 whole entry, stated change not applied): as the sequence (Q96SW2 whole entry, stated change not applied) above

As usually defined, the IC50 is the midpoint of a concentration-inhibition curve. Take `CCS(=O)(=O)N1C=C(c2nc(Nc3ccc(N4CCN(CCCCC(=O)Nc5cccc6c5CN(C5CCC(=O)NC5=O)C6=O)CC4)cc3)ncc2C(F)(F)F)C2CC=CC=C21` (stereo not drawn): in assay [1], the IC50 was 93.5 nM. In assay [2], the Emax is greater than 95%.

Regarding `CCS(=O)(=O)n1cc(-c2nc(Nc3ccc4c(ccn4CCN(C)C)c3)ncc2C(F)(F)F)c2ccccc21`, the half-inhibitory concentration (IC50) in [1] came out at 16.3 nM.

A word on the DC50: it is the midpoint of the concentration-degradation curve. Take `O=C1CCC(N2C(=O)c3cccc(NCCOCCOCCOCCN4CCN(c5ccc(-c6ccc7c(c6)C(=O)N(C(C(=O)Nc6nccs6)c6ccccc6)C7)cn5)CC4)c3C2=O)C(=O)N1` (stereo not drawn): the DC50 in [3] is 5.9 nM.

Regarding `C=CC(=O)Nc1cc(Nc2nccc(-c3cn(C)c4ccccc34)n2)c(OC)cc1N(C)CCN(C)C` [OSIMERTINIB], the IC50 in assay [1] amounted to 2240 nM.

On to `CCS(=O)(=O)n1cc(-c2nc(Nc3ccc(N4CCN(CCC(=O)Nc5cccc6c5CN(C5CCC(=O)NC5=O)C6=O)CC4)cc3)ncc2C(F)(F)F)c2ccccc21` (stereo not drawn), for which, in assay [1], the IC50 turned out to be 59.9 nM. In assay [4], the DC50 came out at 26.1 nM. For the same compound, in assay [2], the Emax worked out at 94.7%.

Take `CCS(=O)(=O)n1cc(-c2nc(Nc3ccc(N4CCN(CCCCCCCC(=O)Nc5cccc6c5CN(C5CCC(=O)NC5=O)C6=O)CC4)cc3)ncc2C(F)(F)F)c2ccccc21` (stereo not drawn): in assay [1], the IC50 is 34.2 nM. In addition, the DC50 in [4] is 17 nM. Further, the Emax in assay [2] is greater than 95%.

As to `CCS(=O)(=O)n1cc(-c2nc(Nc3ccc(N4CCN(CC(=O)Nc5cccc6c5CN(C5CCC(=O)NC5=O)C6=O)CC4)cc3)ncc2C(F)(F)F)c2ccccc21` (stereo not drawn), in assay [1], the IC50 is 88.7 nM. In [4], the DC50 is 30.1 nM. Also, in [2], the Emax was determined as 89.3%.

Consider `CCS(=O)(=O)n1cc(-c2nc(Nc3ccc(N4CCN(CCCC(=O)Nc5cccc6c5CN(C5CCC(=O)NC5=O)C6=O)CC4)cc3)ncc2C(F)(F)F)c2ccccc21` (stereo not drawn), for which the IC50 in assay [1] came to 62.7 nM. Also, the DC50 in assay [4] turned out to be 49.7 nM. Also, the Emax in [2] is greater than 95%.

As to `CCS(=O)(=O)n1cc(-c2nc(Nc3ccc(N4CCN(C(=O)CCCCCCC(=O)Nc5cccc6c5CN(C5CCC(=O)NC5=O)C6=O)CC4)cc3)ncc2C(F)(F)F)c2ccccc21` (stereo not drawn), the IC50 in assay [1] worked out at 278 nM. Also, the DC50 in [4] turned out to be 159 nM. The Emax in assay [2] was 85.9%.

For `COc1cc(N2CCC(N3CCN(C)CC3)CC2)ccc1Nc1ncc(Cl)c(Nc2ccccc2P(C)(C)=O)n1` [BRIGATINIB], the IC50 in [1] is 562 nM; in [5], 404 nM; in the assay on A549 it was 911 nM; with PC-9, 110 nM; in the assay with NCI-H1975 it was 444 nM.

On to `COc1cc2ncnc(Nc3ccc(F)c(Cl)c3)c2cc1OCCCCCOCCOCCC(=O)N[C@H](C(=O)N1C[C@H](O)C[C@H]1C(=O)NCc1ccc(-c2scnc2C)cc1)C(C)(C)C`, for which, in [6], the DC50 amounted to 39 nM.

Regarding `CCS(=O)(=O)n1cc(-c2nc(Nc3ccc(N4CCN(C(=O)CCC(=O)Nc5cccc6c5CN(C5CCC(=O)NC5=O)C6=O)CC4)cc3)ncc2C(F)(F)F)c2ccccc21` (stereo not drawn), the IC50 in assay [1] was 419 nM. In addition, in [4], the DC50 came out at 180 nM. In assay [2], the Emax was determined as 88.4%.

With `CCS(=O)(=O)n1cc(-c2nc(Nc3ccc(N4CCN(C(=O)CCCCCC(=O)Nc5cccc6c5CN(C5CCC(=O)NC5=O)C6=O)CC4)cc3)ncc2C(F)(F)F)c2ccccc21` (stereo not drawn), the IC50 in assay [1] turned out to be 197 nM. The 50% degradation concentration (DC50) in assay [4] was 162 nM. In addition, the Emax in [2] came out at 80.1%.

Consider `CC(C)C[C@@H](C=O)NC(=O)[C@H](CC(C)C)NC(=O)[C@H](CC(C)C)NC(=O)OCc1ccccc1`, for which, in assay [7], the Activity came out at 80.3%.

With `CCS(=O)(=O)n1cc(-c2nc(Nc3ccc(N4CCN(CCCCCC(=O)Nc5cccc6c5CN(C5CCC(=O)NC5=O)C6=O)CC4)cc3)ncc2C(F)(F)F)c2ccccc21` (stereo not drawn), the IC50 in assay [1] was determined as 62.9 nM. Moreover, the DC50 in assay [4] is 59.4 nM. Besides, the Emax in assay [2] was 94.6%.

As for `CCS(=O)(=O)n1cc(-c2nc(Nc3ccc(N4CCN(CCCCCCC(=O)Nc5cccc6c5CN(C5CCC(=O)N(C)C5=O)C6=O)CC4)cc3)ncc2C(F)(F)F)c2ccccc21` (stereo not drawn), in [8], the Activity came out at 97.7%.

In the case of `CCS(=O)(=O)n1cc(-c2nc(Nc3ccc(N4CCN(C(=O)CCCCC(=O)Nc5cccc6c5CN(C5CCC(=O)NC5=O)C6=O)CC4)cc3)ncc2C(F)(F)F)c2ccccc21` (stereo not drawn), the IC50 in assay [1] turned out to be 188 nM. Further, the DC50 in assay [4] was greater than 300 nM. In addition, in assay [2], the Emax is 48.3%.

For `CCS(=O)(=O)n1cc(-c2nc(Nc3ccc(N4CCN(CCCCCCCCCCC(=O)Nc5cccc6c5CN(C5CCC(=O)NC5=O)C6=O)CC4)cc3)ncc2C(F)(F)F)c2ccccc21` (stereo not drawn), the 50% inhibitory concentration (IC50) in [1] came to 161 nM. The half-maximal degradation concentration (DC50) in [4] is 281 nM. Besides, the Emax in [2] worked out at 77.3%.

Turning to `CCS(=O)(=O)n1cc(-c2nc(Nc3ccc(N4CCN(CCOCCOCC(=O)Nc5cccc6c5CN(C5CCC(=O)NC5=O)C6=O)CC4)cc3)ncc2C(F)(F)F)c2ccccc21` (stereo not drawn), the IC50 in [1] was determined as 34.7 nM. In addition, the DC50 in assay [4] turned out to be 25.3 nM. In addition, the Emax in assay [2] is greater than 95%.

Regarding `CCS(=O)(=O)n1cc(-c2nc(Nc3ccc(N4CCN(CCCCC(=O)Nc5cccc6c5CN(C5CCC(=O)NC5=O)C6=O)CC4)cc3)ncc2C(F)(F)F)c2ccccc21` (stereo not drawn), the DC50 in [4] is 82.5 nM.

`CCS(=O)(=O)n1cc(-c2nc(Nc3ccc(N4CCN(CCCCCCCCCC(=O)Nc5cccc6c5CN(C5CCC(=O)NC5=O)C6=O)CC4)cc3)ncc2C(F)(F)F)c2ccccc21` (stereo not drawn): the IC50 in assay [1] worked out at 48.6 nM. Besides, in assay [4], the DC50 was determined as 68.7 nM. Also, in assay [2], the Emax was found to be 80.6%.

Turning to `CCS(=O)(=O)n1cc(-c2nc(Nc3ccc(N4CCN(C(=O)CCCC(=O)Nc5cccc6c5CN(C5CCC(=O)NC5=O)C6=O)CC4)cc3)ncc2C(F)(F)F)c2ccccc21` (stereo not drawn), the IC50 in [1] worked out at 198 nM. In addition, the DC50 in [4] was determined as 153 nM. Besides, in assay [2], the Emax was 80.4%.

For orientation: Kd means the equilibrium constant for the complex coming apart. Regarding `CCS(=O)(=O)n1cc(-c2nc(Nc3ccc(N4CCNCC4)cc3)ncc2C(F)(F)F)c2ccccc21`, the Activity in assay [8] came out at 106%. Also, the Kd in assay [9] is 47.9 nM.

On to `CCS(=O)(=O)n1cc(-c2nc(Nc3ccc(N4CCN(CCCCCCCCC(=O)Nc5cccc6c5CN(C5CCC(=O)NC5=O)C6=O)CC4)cc3)ncc2C(F)(F)F)c2ccccc21` (stereo not drawn), for which the IC50 in assay [1] worked out at 45.4 nM. Further, in assay [4], the DC50 is 33.2 nM. Also, in assay [2], the Emax is greater than 95%.
